Source: patent US20230286970A1, “NOVEL OXADIAZOLE-BASED SELECTIVE HDAC6 INHIBITORS” (ITALFARMACO S.P.A., priority 2020, published 2023)

What was measured:
[1] = target: HDAC9 (Homo sapiens (Human), UniProt Q9UKV0); experiment: Enzymatic screening, HDAC9 inhibition; format: biochemical
Experimental: (§1) For each test compound, 100× concentrated DMSO solutions at 8 doses were prepared and then diluted in assay buffer (25 mM Tris-HCl, pH 8, 130 mM NaCl, 0.05% Tween-20, 10% Glycerol) to obtain 5× concentrated solutions in relation to the final concentrations (typical final concentration range—6.4-200000 nM or 0.18-50000 nM, final DMSO content—1%). Then 10 μL solution of each test compound concentration were placed on a 96-well plate in triplicate and 15 μL of 3.33× concentrated enzyme solution in the assay buffer containing 3.33× concentrated BSA (final BSA concentration—2 mg/mL for HDAC4, HDAC5 and HDAC9 or 1 mg/mL for other isoforms) and in the case of HDAC6-3.33× concentrated TCEP (final TCEP concentration—200 μM) were added to each well. After a period of preincubation (incubation times and temperatures vary for different isoforms and are shown in table 1) 25 μL of solution containing the substrate were added. As substrate, FLUOR DE LYS® deacetylase substrate (Enzo Life Sciences, cat: BML-KI104, FdL), FLUOR DE LYS®-Green substrate (Enzo Life Sciences, cat: BML-KI572, FdL_G) or Boc-Lys(Tfa)-AMC (Bachem, cat: 4060676.005, Tfal)—2× concentrated solution in assay buffer were used. Following a reaction period (reaction times and temperatures vary for different isoforms and are reported in Table 1), 50 μL of the development solution consisting of concentrate FLUOR DE LYS® developer I (Enzo Life Sciences, ca: BML-KI105), diluted 200 times in buffer (50 mM Tris-HCl, pH 8, 137 mM NaCl, 2.7 mM KCl, 1 mM MgCl2) plus 2 μM TSA was added and, after 25 minutes at room temperature in the dark, using the Victor 1420 Multilabel Counter Perkin Elmer Wallac instrument, the fluorescence reading was carried out.

[2] = target: HDAC3 (Homo sapiens (Human), UniProt O15379); experiment: Enzymatic screening, HDAC3 inhibition; format: biochemical
Experimental: as §1

[3] = tested on: α-tubulin acetylation in 697 cell line; experiment: In vitro α-tubulin acetylation in 697 cell line (ELISA); format: cell-based; settings: 16 hours, read-out: fold increase @ 1 uM TubAc (ratio of acetylated tubulin and total tubulin towards control)
Experimental: The in vitro α-tubulin acetylation determination was evaluated on B 697 promyelocytic cell line.
The test molecules were diluted from 20 mM stock solution in DMSO with RPMI 10% FCS+0.01% DMSO medium at 20× concentration compared to the final concentration, added to the cells (15×10^6 cells in a total volume of 30 mL in RPMI medium 10% FCS+0.01% DMSO) to obtain the final concentrations of 1000, 333, 111, 37 nM and incubated at 37° C., 5% CO2 for 16 hours.
At the end of the incubation period, 5×10^6 cells were taken from each sample, centrifuged for 5 minutes at 1100 rpm and washed in 0.9% NaCl at 4° C. The resulting pellet was lysed by treating at 4° C. for 30 minutes with 150 μl of Complete Lysis-M buffer containing protease inhibitors (Complete Lysis-M Roche+Complete Tablets, Mini Easypack, cat: 4719956001) and phosphatase inhibitor cocktails (PhosStop Easypack, Roche, cat: 4906837001), then centrifuged 10 minutes at 14,000 rpm (20817×g). 0.3 μg of supernatant (total protein extract) were diluted in 100 μl of 1×PBS and immobilized in Maxisorp F96 NUN-IMMUNO Plate (Nunc MaxiSorp flat-bottom, Nunc, cat: 442404) at room temperature overnight. Plates were washed twice with Wash Buffer (PBS1×+0.005% tween 20) and saturated for 1 hour at room temperature with 300 μL of 1×PBS containing 10% FCS. After washing twice with Wash Buffer, the plates were incubated for two hours at room temperature in the presence of anti-acetylated-α-tubulin antibody (Monoclonal Anti-acetylated-tubulin clone 6-11B-1, mouse ascites fluid, Sigma, cat: T6793), 100 μl/well diluted 1:1000 in 1×PBS containing 10% FCS) or with total anti-α-tubulin antibody (Monoclonal Anti-alpha-tubulin produced in mouse, Sigma, cat: T6074). Following washing of the pates 5 times with Wash Buffer the secondary antibody conjugated with the enzyme HRP (Goat anti-Mouse IgG, IgM, IgA (H+L), Thermo Fisher Scientific, cat: A10668), diluted 1:1000 in 1×PBS+10% FBS was added at the volume of 100 μl/well.
After washing 4 times, 100 μl/well of TMB substrate kit was added for 10 minutes at room temperature in the dark. The reaction was stopped by adding 50 μl of 2N H2SO4. The plates were read at Multiskan Spectrum spectrophotometer at a wavelength of 450 nm.
The degree of acetylation was calculated by dividing the absorbance obtained for acetylated α-tubulin by the absorbance of total tubulin.
The results of tubulin acetylation, expressed as fold increase of ratio of acetylated α-tubulin/total α-tubulin, of each sample relative to the control sample (untreated) are summarized in table 6.

[4] = target: HDAC5 (Homo sapiens (Human), UniProt Q9UQL6); experiment: Enzymatic screening, HDAC5 inhibition; format: biochemical
Experimental: as §1

[5] = target: recombinant human HDAC6 (Homo sapiens (Human), UniProt Q9UBN7); experiment: Enzymatic screening, HDAC6 inhibition (fluorogenic FdL_G substrate); format: biochemical
Procedure, shortened: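 Enzyme was preincubated with compound (8 doses, triplicate, 1% DMSO) in 25 mM Tris-HCl pH 8, 130 mM NaCl, 0.05% Tween-20, 10% glycerol, with BSA. A FLUOR DE LYS-Green substrate was then added, and fluorescence was read after developer plus 2 μM TSA.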

[6] = target: HDAC7 (Homo sapiens (Human), UniProt Q8WUI4); experiment: Enzymatic screening, HDAC7 inhibition; format: biochemical
Experimental: as §1

[7] = Stability to Phase I metabolism in rat S9 liver fraction; settings: after 90 minutes, 37° C.
[8] = target: HDAC10 (Homo sapiens (Human), UniProt Q969S8); experiment: Enzymatic screening, HDAC10 inhibition; format: biochemical
Experimental: as §1

[9] = Stability to Phase I metabolism in human S9 liver fraction; settings: after 90 minutes, 37° C.
Experimental: Test compounds were incubated in rat and human liver S9 fraction at 37° C. up to 90 minutes in order to evaluate their stability to Phase I metabolism by hepatic enzymes. Each test compound was incubated at μM concentration (50 μM when the samples were analysed by UV/HPLC, 1 or 2 μM when the samples were analysed by LC-MS/MS) with S9 fraction (protein content 2 mg/m L) in 100 mM phosphate buffer (pH 7.4), 3.3 mM MgCl2 and 1.3 mM NADPH for 0, 10, 30, 60 and 90 minutes at 37° C. in a thermostated oscillating bath. The reaction was stopped placing samples on ice bath and adding acidified acetonitrile. After centrifugation (10 minutes at 14000 rpm) an aliquot of the supernatant was diluted with water, filtered with 0.45 μm regenerated cellulose syringe filters and injected in HPLC-UV or in LC-MS/MS. The percentage of the remaining amount at the various incubation times with respect to the initial amount were calculated.

[10] = Stability in rat plasma; settings: after 4 hours, 37° C.
[11] = Stability in human plasma; settings: after 4 hours, 37° C.
[12] = target: recombinant human HDAC1 (Homo sapiens (Human), UniProt Q13547); experiment: Enzymatic screening, HDAC1 inhibition (fluorogenic FdL_G substrate); format: biochemical
Procedure, shortened: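 Recombinant human HDAC1 inhibition was measured fluorometrically using the FLUOR DE LYS-Green (FdL_G) substrate. Compounds at 8 doses (1% DMSO final) in Tris-HCl pH 8 buffer with NaCl, Tween-20 and glycerol were preincubated in triplicate with enzyme and 1 mg/mL BSA, then given substrate. Developer I plus 2 μM TSA was added, and fluorescence read after 25 minutes in the dark.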

[13] = target: HDAC4 (Homo sapiens (Human), UniProt P56524); experiment: Enzymatic screening, HDAC4 inhibition; format: biochemical
Experimental: as §1

[14] = target: HDAC2 (Homo sapiens (Human), UniProt Q92769); experiment: Enzymatic screening, HDAC2 inhibition; format: biochemical
Experimental: as §1

[15] = target: HDAC11 (Homo sapiens (Human), UniProt Q96DB2); experiment: Enzymatic screening, HDAC11 inhibition; format: biochemical
Experimental: as §1

[16] = target: HDAC8 (Homo sapiens (Human), UniProt Q9BY41); experiment: Enzymatic screening, HDAC8 inhibition; format: biochemical
Experimental: as §1

recombinant human HDAC1, sequence (Q13547 whole entry): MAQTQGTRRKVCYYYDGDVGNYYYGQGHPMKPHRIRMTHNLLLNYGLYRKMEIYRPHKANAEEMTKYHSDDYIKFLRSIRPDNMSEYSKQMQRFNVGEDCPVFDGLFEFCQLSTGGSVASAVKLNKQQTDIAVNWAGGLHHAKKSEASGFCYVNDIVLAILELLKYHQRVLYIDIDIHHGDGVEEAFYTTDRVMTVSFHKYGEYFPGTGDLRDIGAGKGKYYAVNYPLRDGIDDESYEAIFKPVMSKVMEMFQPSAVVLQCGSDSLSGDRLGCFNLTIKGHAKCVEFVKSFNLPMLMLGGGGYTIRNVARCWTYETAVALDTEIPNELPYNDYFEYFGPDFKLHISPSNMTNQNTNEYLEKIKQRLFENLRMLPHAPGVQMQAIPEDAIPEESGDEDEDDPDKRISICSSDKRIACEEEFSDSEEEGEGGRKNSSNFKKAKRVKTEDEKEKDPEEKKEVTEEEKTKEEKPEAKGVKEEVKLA
recombinant human HDAC6, sequence (Q9UBN7 whole entry): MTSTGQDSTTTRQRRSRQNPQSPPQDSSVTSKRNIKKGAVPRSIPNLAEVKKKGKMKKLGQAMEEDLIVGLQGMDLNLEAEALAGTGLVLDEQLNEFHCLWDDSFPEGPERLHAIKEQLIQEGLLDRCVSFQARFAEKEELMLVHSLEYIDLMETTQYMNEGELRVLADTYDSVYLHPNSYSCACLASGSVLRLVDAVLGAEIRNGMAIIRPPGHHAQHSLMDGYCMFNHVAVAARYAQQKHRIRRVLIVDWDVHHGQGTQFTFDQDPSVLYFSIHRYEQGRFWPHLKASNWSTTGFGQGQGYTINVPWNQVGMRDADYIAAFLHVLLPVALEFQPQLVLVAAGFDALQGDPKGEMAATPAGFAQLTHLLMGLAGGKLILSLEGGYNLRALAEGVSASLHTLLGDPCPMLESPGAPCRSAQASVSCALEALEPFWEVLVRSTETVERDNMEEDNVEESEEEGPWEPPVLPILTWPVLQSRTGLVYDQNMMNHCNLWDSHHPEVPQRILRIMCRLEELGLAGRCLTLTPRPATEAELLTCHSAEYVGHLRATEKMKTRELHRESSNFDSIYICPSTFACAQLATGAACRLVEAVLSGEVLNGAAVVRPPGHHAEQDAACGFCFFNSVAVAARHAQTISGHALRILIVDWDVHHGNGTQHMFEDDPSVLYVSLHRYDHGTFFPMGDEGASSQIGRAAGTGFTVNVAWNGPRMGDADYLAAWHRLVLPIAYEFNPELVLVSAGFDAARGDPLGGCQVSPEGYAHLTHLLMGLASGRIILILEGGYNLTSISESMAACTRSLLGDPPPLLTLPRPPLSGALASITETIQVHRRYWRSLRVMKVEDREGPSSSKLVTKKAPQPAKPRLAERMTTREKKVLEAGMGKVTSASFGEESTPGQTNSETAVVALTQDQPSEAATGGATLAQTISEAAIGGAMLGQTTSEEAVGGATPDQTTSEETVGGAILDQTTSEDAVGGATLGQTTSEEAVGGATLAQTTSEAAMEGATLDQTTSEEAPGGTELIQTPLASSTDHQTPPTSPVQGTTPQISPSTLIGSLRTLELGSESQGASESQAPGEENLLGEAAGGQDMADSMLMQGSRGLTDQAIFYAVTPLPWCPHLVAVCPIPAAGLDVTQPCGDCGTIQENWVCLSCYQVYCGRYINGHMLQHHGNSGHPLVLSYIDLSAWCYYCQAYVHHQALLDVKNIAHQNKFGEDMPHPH
HDAC2, sequence (Q92769 whole entry): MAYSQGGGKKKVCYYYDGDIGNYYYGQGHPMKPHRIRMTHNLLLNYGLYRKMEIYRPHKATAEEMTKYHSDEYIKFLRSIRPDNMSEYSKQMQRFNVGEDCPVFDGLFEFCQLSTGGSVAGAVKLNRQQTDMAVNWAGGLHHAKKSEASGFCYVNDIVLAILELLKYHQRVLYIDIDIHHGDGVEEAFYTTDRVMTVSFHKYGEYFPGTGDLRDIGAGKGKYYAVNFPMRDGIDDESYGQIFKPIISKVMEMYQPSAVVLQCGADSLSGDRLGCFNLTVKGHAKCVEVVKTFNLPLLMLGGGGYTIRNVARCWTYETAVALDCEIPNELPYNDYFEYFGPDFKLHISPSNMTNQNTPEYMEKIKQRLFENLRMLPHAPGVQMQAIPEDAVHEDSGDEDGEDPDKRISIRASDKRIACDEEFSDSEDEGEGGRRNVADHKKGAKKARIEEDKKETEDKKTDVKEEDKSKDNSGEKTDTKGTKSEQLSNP
HDAC7, sequence (Q8WUI4 whole entry): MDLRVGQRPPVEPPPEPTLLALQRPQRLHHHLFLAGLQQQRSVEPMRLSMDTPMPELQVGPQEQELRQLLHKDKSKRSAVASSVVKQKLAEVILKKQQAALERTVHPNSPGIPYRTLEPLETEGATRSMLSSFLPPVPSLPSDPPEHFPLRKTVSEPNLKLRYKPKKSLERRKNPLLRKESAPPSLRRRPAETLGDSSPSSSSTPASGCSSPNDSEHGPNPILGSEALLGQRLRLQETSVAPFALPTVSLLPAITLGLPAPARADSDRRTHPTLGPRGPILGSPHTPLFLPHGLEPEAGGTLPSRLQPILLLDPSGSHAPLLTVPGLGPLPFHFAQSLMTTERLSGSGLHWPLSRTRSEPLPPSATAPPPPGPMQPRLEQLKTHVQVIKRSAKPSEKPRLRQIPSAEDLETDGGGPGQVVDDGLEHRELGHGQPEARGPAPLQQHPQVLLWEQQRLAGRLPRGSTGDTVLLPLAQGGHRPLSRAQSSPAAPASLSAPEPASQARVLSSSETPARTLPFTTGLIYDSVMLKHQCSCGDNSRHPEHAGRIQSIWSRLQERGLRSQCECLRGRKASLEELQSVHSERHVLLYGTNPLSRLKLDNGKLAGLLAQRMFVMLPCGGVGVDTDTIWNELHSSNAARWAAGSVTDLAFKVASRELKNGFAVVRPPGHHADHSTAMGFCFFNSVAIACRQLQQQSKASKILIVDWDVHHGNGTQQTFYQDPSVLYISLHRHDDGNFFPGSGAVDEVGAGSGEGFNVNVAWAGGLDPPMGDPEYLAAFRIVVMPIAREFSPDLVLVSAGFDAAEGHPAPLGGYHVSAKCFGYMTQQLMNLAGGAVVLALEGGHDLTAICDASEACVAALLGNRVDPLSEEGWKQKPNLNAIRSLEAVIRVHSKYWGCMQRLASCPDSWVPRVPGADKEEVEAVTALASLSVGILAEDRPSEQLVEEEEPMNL
HDAC8, sequence (Q9BY41 whole entry): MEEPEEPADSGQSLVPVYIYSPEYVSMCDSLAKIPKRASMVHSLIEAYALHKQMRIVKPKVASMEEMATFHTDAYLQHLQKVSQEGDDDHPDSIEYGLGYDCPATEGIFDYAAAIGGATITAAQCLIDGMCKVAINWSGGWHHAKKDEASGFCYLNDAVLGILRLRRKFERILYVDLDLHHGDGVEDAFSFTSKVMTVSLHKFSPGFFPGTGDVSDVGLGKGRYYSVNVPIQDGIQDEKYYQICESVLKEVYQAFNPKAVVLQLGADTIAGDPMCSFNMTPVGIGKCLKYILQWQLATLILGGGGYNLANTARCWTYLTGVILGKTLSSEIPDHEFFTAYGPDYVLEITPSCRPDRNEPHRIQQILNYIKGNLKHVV
HDAC10, sequence (Q969S8 whole entry): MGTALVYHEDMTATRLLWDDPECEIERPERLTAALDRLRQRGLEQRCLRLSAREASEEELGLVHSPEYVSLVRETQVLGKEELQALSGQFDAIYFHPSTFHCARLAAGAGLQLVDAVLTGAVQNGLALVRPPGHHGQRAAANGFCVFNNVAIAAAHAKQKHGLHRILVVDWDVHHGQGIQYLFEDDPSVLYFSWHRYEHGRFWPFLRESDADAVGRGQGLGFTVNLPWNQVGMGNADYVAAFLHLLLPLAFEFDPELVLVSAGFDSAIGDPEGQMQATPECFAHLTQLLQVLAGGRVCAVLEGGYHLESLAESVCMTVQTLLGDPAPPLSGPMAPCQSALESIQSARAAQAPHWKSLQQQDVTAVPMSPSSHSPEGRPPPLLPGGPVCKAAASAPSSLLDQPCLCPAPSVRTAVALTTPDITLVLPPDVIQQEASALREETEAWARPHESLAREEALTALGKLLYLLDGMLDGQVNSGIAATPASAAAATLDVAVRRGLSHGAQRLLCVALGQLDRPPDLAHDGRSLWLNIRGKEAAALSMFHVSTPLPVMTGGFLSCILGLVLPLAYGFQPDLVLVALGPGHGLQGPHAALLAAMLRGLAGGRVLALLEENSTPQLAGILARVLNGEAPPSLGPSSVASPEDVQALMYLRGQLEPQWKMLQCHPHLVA
HDAC11, sequence (Q96DB2 whole entry): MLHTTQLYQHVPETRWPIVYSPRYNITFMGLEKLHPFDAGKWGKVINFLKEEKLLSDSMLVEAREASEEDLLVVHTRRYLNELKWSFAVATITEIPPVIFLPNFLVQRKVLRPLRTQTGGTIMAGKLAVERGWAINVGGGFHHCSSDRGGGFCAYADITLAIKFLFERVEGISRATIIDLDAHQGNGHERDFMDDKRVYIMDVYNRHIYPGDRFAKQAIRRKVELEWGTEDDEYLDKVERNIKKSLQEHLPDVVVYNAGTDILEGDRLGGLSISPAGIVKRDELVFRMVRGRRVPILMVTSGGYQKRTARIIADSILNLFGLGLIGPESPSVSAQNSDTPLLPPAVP

Structure (SMILES)	IC50 [1] [µM]	IC50 [2] [µM]	fold induction at 1 µM [3]	IC50 [4] [µM]	IC50 [5] [µM]	IC50 [6] [µM]	residual percentage in RAT S9 FRACTION [7] [%]	IC50 [8] [µM]	residual percentage in HUMAN S9 FRACTION [9] [%]	residual percentage in RAT PLASMA [10] [%]	residual percentage in HUMAN PLASMA [11] [%]	IC50 [12] [µM]	IC50 [13] [µM]	IC50 [14] [µM]	IC50 [15] [µM]	IC50 [16] [µM]
Nc1ccc(-c2cnn(Cc3ccc(-c4nnc(C(F)F)o4)cn3)c2)cn1 [compound 13, 5-(1-((5-(5-(difluoromethyl)-1,3,4-oxadiazol-2-yl)pyridin-2-yl)methyl)-1H-pyrazol-4-yl)pyridin-2-amine]	> 30	> 30	16	> 30	0.023	> 30	98	> 30	97	75	78	> 200	> 30	> 30	> 30	197
FC(F)c1nnc(-c2ccc(Cn3cc(-c4ccc(NC5=NCCN5)cc4)nn3)cc2)o1 [compound 10, N-(4-(1-(4-(5-(difluoromethyl)-1,3,4-oxadiazol-2-yl)benzyl)-1H-1,2,3-triazol-4-yl)phenyl)-4,5-dihydro-1H-imidazol-2-amine]	> 30	> 30	11	> 30	0.016	> 30	95	> 30	95	97	89	> 200	> 30	> 30	> 30	29.5
O=C1Nc2cc(-c3cn(Cc4ccc(-c5nnc(C(F)F)o5)cn4)nn3)ccc2NC12CCNCC2 [compound 41, 6′-(1-((5-(5-(difluoromethyl)-1,3,4-oxadiazol-2-yl)pyridin-2-yl)methyl)-1H-1,2,3-triazol-4-yl)-1′,4′-dihydro-3′H-spiro[piperidine-4,2′-quinoxalin]-3′-one]			4		0.019		92		94	77	91	123				
C[C@H](c1ccc(-c2nnc(C(F)F)o2)cn1)n1cc(-c2ccc(N)nc2)nn1 [Compd. 32, (R)-5-(1-(1-(5-(5-(difluoromethyl)-1,3,4-oxadiazol-2-yl)pyridin-2-yl)ethyl)-1H-1,2,3-triazol-4-yl)pyridin-2-amine]			31		0.014		91		97	67	97	> 200				
CNc1ccc2cc(-c3cn(Cc4ccc(-c5nnc(C(F)F)o5)cn4)nn3)ccc2n1 [compound 34, 6-(1-((5-(5-(difluoromethyl)-1,3,4-oxadiazol-2-yl)pyridin-2-yl)methyl)-1H-1,2,3-triazol-4-yl)-N-methylquinolin-2-amine]			28		0.015		83		89	69	95	> 200				
C[C@@H](c1ccc(-c2nnc(C(F)F)o2)cc1)n1cc(-c2cccc(NC(=O)N3CCOCC3)c2)nn1 (stereo in doubt) [compound 104, N-(3-(1-(1-(4-(5-(difluoromethyl)-1,3,4-oxadiazol-2-yl)phenyl)ethyl)-1H-1,2,3-triazol-4-yl)phenyl)morpholine-4-carboxamide]			15		0.04		78		86	87	92	> 200				
CN1CCN(C(=O)Nc2cccc(-c3cn(Cc4ccc(-c5nnc(C(F)F)o5)cn4)nn3)c2)CC1 [Compd. 51, N-(3-(1-((5-(5-(difluoromethyl)-1,3,4-oxadiazol-2-yl)pyridin-2-yl)methyl)-1H-1,2,3-triazol-4-yl)phenyl)-4-methylpiperazine-1-carboxamide]			26		0.022		62		90	79	90	> 200				
NC(=O)c1cccc(-c2nnn(Cc3ccc(-c4nnc(C(F)F)o4)c(F)c3)n2)c1 [compound 89, 3-(2-(4-(5-(difluoromethyl)-1,3,4-oxadiazol-2-yl)-3-fluorobenzyl)-2H-tetrazol-5-yl)benzamide]			8		0.034		98		96	82	81	> 200				
